We go through four compounds from US20240199601A1, “QUINONE COMPOUND AND PHARMACEUTICAL USE THEREOF” (NANJING SHUPENG LIFE SCIENCE CO., LTD., priority 2021, published 2024).

Data set [1] relates to inflammatory pain model (complete Freund's adjuvant). The data set is described as follows: Inflammatory pain model (complete Freund's adjuvant), mechanical pain threshold. As to conditions: for duration of the analgesic effect / analgesic effect 1.5 hours after oral administration: single oral dose (SP3101 20 mg/kg); for analgesic effect 1.5 hours after oral administration: mechanical pain threshold vs model group. It counts as in vivo, SD rats. The protocol:
4 SD rats with a body weight of 200-250 g were used as a blank control (NC), and normal saline was injected into the soles of the left feet of the rats. Inflammatory pain models of 18 rats were constructed, that is to say, 100 μL of a complete Freund's adjuvant was injected into soles of the left feet of the rats, mechanical pain thresholds of the left feet were detected by an ALMEMO2490 data collector 24 hours later, 2 rats with a pain threshold of greater than 15 were abandoned, and the other 16 rats were randomly divided into 4 groups with 4 rats in each group and then administered with water as a positive control (PC), SP3101 (20 mg/kg), PQQ (20 mg/kg) and ibuprofen (25 mg/kg/day) by gavage, respectively.

Data set [2] concerns AMPK. Briefly: AMPK phosphorylation level in a variety of cells. It counts as cell-based. As to conditions: 100 nM.
For a further data set, the system named is rats. As to conditions: oral, cited from earlier work.
For the next data set, the system named is humans. Particulars: cited from earlier work.
The conditions of data set [3]: cited from earlier work.
The conditions of data set [4]: beagles; cited from earlier work.
The test system of another data set is acetaldehyde. Particulars: 11.5 mg/kg body weight i.p. before ethanol by gavage; cited from earlier work.
The test system of data set [5] is chronic constriction injury (CCI) model. Particulars: CCI model of rats; cited from earlier work.
The conditions of data set [6]: cited from earlier work. The source holds these as a separate data set.
For data set [7], the system named is AMPK. Briefly: AMPK agonist test in RAW264.7 cells (protein hybridization, p-AMPK). As to conditions: 0.1 μM, 24 hours. It counts as cell-based. As to the method: (§1) RAW264.7 cells were inoculated into two six-well plates and enabled to grow to a density of about 90%, and SP3101 and SP3102 of different concentrations were added, respectively. 24 hours later, the cells were lysed with a radio immunoprecipitation assay (RIPA) lysis buffer, and the expression of proteins was detected by protein hybridization.
(§2) Phosphorylation of serine at the 127th site of AMPK is used as an activation marker. […] It can be seen that the compounds, represented by the SP3101 and the SP3102, of the present invention are used as an AMPK agonist.

The subject of data set [8] is antioxidant transcription factor (Nrf2). Briefly: Nrf2 expression in RAW264.7 cells (protein hybridization). It counts as cell-based. Particulars: different concentrations, 24 hours. As to the method: as §1, §2
In data set [9] the test system is autophagy related protein (LC3B). The data set is described as follows: LC3B expression in RAW264.7 cells (protein hybridization). It counts as cell-based. Particulars: different concentrations, 24 hours. The protocol: as §1, §2
Where [10] appears, read: 20 mg/kg/day orally for three days, rats.
The mark [11] stands for this setting: human volunteers, 60 mg/day for one month.

“Also recorded” adds a separate entry of the source. Read-outs that look alike come from different tables or passages of the source.

`CC(C)Cc1ccc(C(C)C(=O)O)cc1` (stereo not drawn) [ibuprofen]: the “analgesic effect 1.5 hours after each oral administration” value in data set [1] (25 mg/kg once a day orally for 3 days, day 1/2/3, rats) is “obvious analgesic effect”. Further, the “analgesic effect before administration” value in data set [1] (25 mg/kg once a day orally, rats, data not shown) is reported as “no analgesic effect”. The “analgesic effect on the fourth day without administration” value in data set [1] (after 25 mg/kg once a day orally for 3 days, rats) was “no analgesic effect”.
For `O=C(O)c1cc(C(=O)O)c2c(n1)C(=O)C(=O)c1cc(C(=O)O)[nH]c1-2` [PQQ, 4,5-dihydro-4,5-dioxo-1H-pyrrolo(2,3-f)quinone-2,7,9-tricarboxylic acid], in data set [1] (setting [10]), the “analgesic effect 1.5 hours after oral administration on the first day” value was “No analgesic effect” and the “analgesic effect on day 2/3/4/5/6/7” value is recorded as “obvious analgesic effect”. Further, the “phosphorylation level of the AMPK” value in the data set with AMPK [2] is “significantly up-regulate”. In the data set on rats (female rats, 14 days), the Adverse response result is “Reversible; also recorded: Increased kidney; also recorded: Increased urine” and the “Median lethal dose (LD50)” value is 500-1,000 mg/kg/day. In the data set with rats (female rats, 91 days, 400 mg/kg/day), the Adverse response entry is recorded as “None”. In addition, in the data set on rats (male rats, 14 days), the Adverse response entry is recorded as “None” and the “Median lethal dose (LD50)” value is recorded as 1,000-2,000 mg/kg/day. In addition, in the data set on rats (male rats, 91 days, 400 mg/kg/day), the Adverse response result was “None”. For the same compound, the “safe dose determined by the FDA (rarely adverse events)” value in the data set with humans (healthy adults, body weight about 60 kg, every day) was 240 mg. Besides, in the data set on humans (setting [11]), the adverse responses result is given as “no adverse responses” and the “changes of kidney injury markers” value is listed as “no changes of kidney injury markers”. In addition, the “excreted by the kidney (through urine)” value in data set [3] (24 hours after the administration) is reported as 80%. Moreover, the “absorbed by the small intestines” value in data set [3] (after oral administration) is given as “about 60%”. Moreover, in data set [4], the bioavailability result is given as “about 12%”. In addition, in the data set with acetaldehyde, the “concentration of acetaldehyde vs control group” value is on record as “much lower concentration of acetaldehyde”; the “concentration of ethanol in the blood and liver vs control group” value was “no obvious differences”. Moreover, the analgesic effect entry in data set [5] is “had an analgesic effect”. In addition, the solubility in water entry in data set [6] was “slightly soluble in water”.
With `COc1cc(C(=O)O)c2c(n1)C(=O)C(=O)c1cc[nH]c1-2` [SP3103, 7-methoxy-4,5-dioxo-4,5-dihydro-1H-pyrrolo[2,3-f]quinone-9-carboxylic acid], in data set [1] (rats), the “duration of the analgesic effect” value turned out to be 72 h and the “analgesic effect 1.5 hours after oral administration” value was “obvious analgesic effect”.
In the case of `CC(=O)Oc1cc(C(=O)O)c2c(n1)C(=O)C(=O)c1cc[nH]c1-2` [SP3102, 7-acetoxy-4,5-dioxo-4,5-dihydro-1H-pyrrolo[2,3-f]quinone-9-carboxylic acid], in [1] (rats), the “duration of the analgesic effect” value is 72 h and the “analgesic effect 1.5 hours after oral administration” value is listed as “obvious analgesic effect”. Besides, in the data set on AMPK [7], the “activation of AMPK (expression of p-AMPK)” value is recorded as “obviously activate the AMPK”. Moreover, in data set [8], the “expression of antioxidant transcription factor (Nrf2)” value is on record as “increased in a dose-dependent manner”. The “expression of autophagy related protein (LC3B)” value in data set [9] was “also increased”. For the same compound, the “phosphorylation level of the AMPK” value in the data set with AMPK [2] is reported as “significantly up-regulate”.
